Structures are written as SMILES.

The target in this test is T1, Androgen Receptor (AR) protein (Homo sapiens, UniProt P10275, T878A).
T1 construct: endogenous in cells; host or cells: LNCaP
Kind of test: Androgen Receptor (AR) protein degradation assay in LNCaP cells, western blotting. It counts as cell-based. As to conditions: 20 h; for inhibition at 0.01 µM: 0.01 μM compound; for inhibition at 0.1 µM: 0.1 μM compound; for inhibition at 1 µM: 1 μM compound; for inhibition at 10 µM: 10 μM compound. Put shortly:
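LNCaP prostate cancer cells were cultured 3 days, then treated with compound for 20 h. Lysates in 1% SDS buffer were normalised by BCA, and 8 μg protein was run on 4–12% Bis-Tris gels. AR was immunoblotted with chemiluminescence, using GAPDH/β-actin as loading controls.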

T1 sequence (P10275 whole entry T878A): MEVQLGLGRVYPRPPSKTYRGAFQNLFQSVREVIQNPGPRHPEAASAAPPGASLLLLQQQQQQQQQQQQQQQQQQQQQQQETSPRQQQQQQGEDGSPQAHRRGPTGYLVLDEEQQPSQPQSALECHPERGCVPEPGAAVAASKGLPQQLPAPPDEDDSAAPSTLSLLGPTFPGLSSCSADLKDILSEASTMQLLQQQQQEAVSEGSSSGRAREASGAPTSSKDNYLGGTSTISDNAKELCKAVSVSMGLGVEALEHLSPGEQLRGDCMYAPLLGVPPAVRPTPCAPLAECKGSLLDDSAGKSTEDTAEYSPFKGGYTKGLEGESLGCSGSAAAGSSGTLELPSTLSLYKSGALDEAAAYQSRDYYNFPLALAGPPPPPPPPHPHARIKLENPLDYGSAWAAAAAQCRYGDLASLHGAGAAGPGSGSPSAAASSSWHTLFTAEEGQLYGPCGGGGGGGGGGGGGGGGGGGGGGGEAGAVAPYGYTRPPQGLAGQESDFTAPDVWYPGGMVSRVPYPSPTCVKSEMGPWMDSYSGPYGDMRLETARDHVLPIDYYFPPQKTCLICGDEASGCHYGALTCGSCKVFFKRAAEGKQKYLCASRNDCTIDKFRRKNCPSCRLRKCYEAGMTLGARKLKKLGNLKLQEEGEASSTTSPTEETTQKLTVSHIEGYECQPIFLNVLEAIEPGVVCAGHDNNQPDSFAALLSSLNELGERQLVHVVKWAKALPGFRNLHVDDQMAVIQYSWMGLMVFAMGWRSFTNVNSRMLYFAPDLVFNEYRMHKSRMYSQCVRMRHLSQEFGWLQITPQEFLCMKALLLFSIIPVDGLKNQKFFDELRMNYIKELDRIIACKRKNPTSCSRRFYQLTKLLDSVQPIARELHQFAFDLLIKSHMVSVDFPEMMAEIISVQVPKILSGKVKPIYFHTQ
T1 sequence (Q96SW2 whole entry partner): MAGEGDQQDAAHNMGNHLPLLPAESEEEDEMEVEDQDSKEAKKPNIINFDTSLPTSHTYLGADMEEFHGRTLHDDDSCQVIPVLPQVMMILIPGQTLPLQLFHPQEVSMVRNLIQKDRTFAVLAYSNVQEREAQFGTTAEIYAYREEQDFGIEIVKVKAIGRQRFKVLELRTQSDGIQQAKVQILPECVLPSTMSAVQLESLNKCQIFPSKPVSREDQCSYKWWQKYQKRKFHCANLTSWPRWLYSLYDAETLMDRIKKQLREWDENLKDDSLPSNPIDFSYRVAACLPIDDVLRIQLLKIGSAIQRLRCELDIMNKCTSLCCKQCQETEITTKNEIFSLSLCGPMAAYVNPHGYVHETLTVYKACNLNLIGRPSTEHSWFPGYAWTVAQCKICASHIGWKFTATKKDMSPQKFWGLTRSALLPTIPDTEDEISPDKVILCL

In general, inhibition refers to the change of the read-out against control, counted positive when it falls. With `N#Cc1ccc(N2CCC(C(=O)Nc3ccc(N4CCC(CCN5CCC6(CC5)CN(c5ccc7c(n5)CN(C5CCC(=O)NC5=O)C7=O)C6)CC4)cn3)CC2)cc1C(F)(F)F` (centres unmarked) [Example 96, 1-(4-cyano-3-(trifluoromethyl)phenyl)-N-(5-(4-(2-(2-(6-(2,6-dioxopiperidin-3-yl)-5-oxo-6,7-dihydro-5H-pyrrolo[3,4-b]pyridin-2-yl)-2,7-diazaspiro[3.5]nonan-7-yl)ethyl)piperidin-1-yl)pyridin-2-yl)piperidine-4-carboxamide], the inhibition at 0.01 µM is 71%, the inhibition at 0.1 µM was found to be 93% and the inhibition at 1 µM worked out at 91%.
Take `N#Cc1ccc(N2CCC(C(=O)Nc3ccc(N4CCC(CCN5CC(N6CCN(c7ccc8c(c7)C(=O)N(C7CCC(=O)NC7=O)C8=O)CC6)C5)CC4)cn3)CC2)cc1C(F)(F)F` (centres unmarked) [Example 97, 1-(4-cyano-3-(trifluoromethyl)phenyl)-N-(5-(4-(2-(3-(4-(2-(2,6-dioxopiperidin-3-yl)-1,3-dioxoisoindolin-5-yl)piperazin-1-yl)azetidin-1-yl)ethyl)piperidin-1-yl)pyridin-2-yl)piperidine-4-carboxamide]: the inhibition at 0.01 µM stood at 39%, the inhibition at 0.1 µM was 93% and the inhibition at 1 µM turned out to be 96%.
Take `N#Cc1ccc(N2CCC(C(=O)Nc3ccc(N4CCC(CCN5CC(N6CCN(c7ccc8c(n7)CN(C7CCC(=O)NC7=O)C8=O)CC6)C5)CC4)cn3)CC2)cc1C(F)(F)F` (centres unmarked) [Example 98, 1-(4-cyano-3-(trifluoromethyl)phenyl)-N-(5-(4-(2-(3-(4-(6-(2,6-dioxopiperidin-3-yl)-5-oxo-6,7-dihydro-5H-pyrrolo[3,4-b]pyridin-2-yl)piperazin-1-yl)azetidin-1-yl)ethyl)piperidin-1-yl)pyridin-2-yl)piperidine-4-carboxamide]: the inhibition at 0.01 µM amounted to 48%, the inhibition at 0.1 µM was 89% and the inhibition at 1 µM was 76%.
The like results for `N#Cc1ccc(N2CCC(C(=O)Nc3ccc(N4CCC(CCN5CCN(C6CN(c7ccc8c(c7)C(=O)N(C7CCC(=O)NC7=O)C8=O)C6)CC5)CC4)cn3)CC2)cc1C(F)(F)F` (centres unmarked) [Example 99, 1-(4-cyano-3-(trifluoromethyl)phenyl)-N-(5-(4-(2-(4-(1-(2-(2,6-dioxopiperidin-3-yl)-1,3-dioxoisoindolin-5-yl)azetidin-3-yl)piperazin-1-yl)ethyl)piperidin-1-yl)pyridin-2-yl)piperidine-4-carboxamide] were, in that order, 70%, 98% and 96%.
For `N#Cc1ccc(N2CCC(C(=O)Nc3ccc(N4CCC(CCN5CCN(C6CN(c7ccc8c(n7)CN(C7CCC(=O)NC7=O)C8=O)C6)CC5)CC4)cn3)CC2)cc1C(F)(F)F` (centres unmarked) [Example 100, 1-(4-cyano-3-(trifluoromethyl)phenyl)-N-(5-(4-(2-(4-(1-(6-(2,6-dioxopiperidin-3-yl)-5-oxo-6,7-dihydro-5H-pyrrolo[3,4-b]pyridin-2-yl)azetidin-3-yl)piperazin-1-yl)ethyl)piperidin-1-yl)pyridin-2-yl)piperidine-4-carboxamide] the same measures were 31%, 84% and 89%.
As to `N#Cc1ccc(N2CCC(C(=O)Nc3ccc(N4CCC(CCN5CC6CN(c7ccc8c(c7)C(=O)N(C7CCC(=O)NC7=O)C8=O)CC6C5)CC4)cn3)CC2)cc1C(F)(F)F` (centres unmarked) [Example 101, 1-(4-cyano-3-(trifluoromethyl)phenyl)-N-(5-(4-(2-(5-(2-(2,6-dioxopiperidin-3-yl)-1,3-dioxoisoindolin-5-yl)hexahydropyrrolo[3,4-c]pyrrol-2(1H)-yl)ethyl)piperidin-1-yl)pyridin-2-yl)piperidine-4-carboxamide], the inhibition at 0.01 µM was 63%, the inhibition at 0.1 µM is 95% and the inhibition at 1 µM turned out to be 95%.
For the compound `CN(CCC1CCN(c2ccc(NC(=O)C3CCN(c4ccc(C#N)c(C(F)(F)F)c4)CC3)nc2)CC1)C1CCN(c2ccc3c(c2)C(=O)N(C2CCC(=O)NC2=O)C3=O)CC1` (centres unmarked) [Example 102, 1-(4-cyano-3-(trifluoromethyl)phenyl)-N-(5-(4-(2-((1-(2-(2,6-dioxopiperidin-3-yl)-1,3-dioxoisoindolin-5-yl)piperidin-4-yl)(methyl)amino)ethyl)piperidin-1-yl)pyridin-2-yl)piperidine-4-carboxamide], the inhibition at 0.01 µM was 35%, the inhibition at 0.1 µM is 90% and the inhibition at 1 µM turned out to be 92%.
For `N#Cc1ccc(N2CCN(C(=O)Nc3ccc(N4CCC(CN5CC6(CCN(c7ccc8c(c7)C(=O)N(C7CCC(=O)NC7=O)C8=O)CC6)C5)CC4)nc3)CC2)cc1C(F)(F)F` (centres unmarked) [Example 103, 4-(4-cyano-3-(trifluoromethyl)phenyl)-N-(6-(4-((7-(2-(2,6-dioxopiperidin-3-yl)-1,3-dioxoisoindolin-5-yl)-2,7-diazaspiro[3.5]nonan-2-yl)methyl)piperidin-1-yl)pyridin-3-yl)piperazine-1-carboxamide], the inhibition at 0.01 µM was -9%, the inhibition at 0.1 µM worked out at 15%, the inhibition at 1 µM was 44% and the inhibition at 10 µM was 58%.
Take `N#Cc1ccc(N2CCN(C(=O)Nc3ccc(N4CCC(CN5CC6(CCN(c7ccc8c(c7)C(=O)N(C7CCC(=O)NC7=O)C8=O)CC6)C5)CC4)nc3)CC2)cc1Cl` (centres unmarked) [Example 104, 4-(3-chloro-4-cyanophenyl)-N-(6-(4-((7-(2-(2,6-dioxopiperidin-3-yl)-1,3-dioxoisoindolin-5-yl)-2,7-diazaspiro[3.5]nonan-2-yl)methyl)piperidin-1-yl)pyridin-3-yl)piperazine-1-carboxamide]: the inhibition at 0.01 µM was -2%, the inhibition at 0.1 µM was -5%, the inhibition at 1 µM was 36% and the inhibition at 10 µM amounted to 59%.
As to `N#Cc1ccc(N2CCC(C(=O)Nc3ccc(N4CCC(CN5CCN(C6CCN(c7ccc(C(=O)NC8CCC(=O)NC8=O)nc7)CC6)CC5)CC4)cn3)CC2)cc1C(F)(F)F` (centres unmarked) [Example 105, 5-(4-(4-((1-(6-(1-(4-cyano-3-(trifluoromethyl)phenyl)piperidine-4-carboxamido)pyridin-3-yl)piperidin-4-yl)methyl)piperazin-1-yl)piperidin-1-yl)-N-(2,6-dioxopiperidin-3-yl)picolinamide], the inhibition at 0.01 µM came out at 43%, the inhibition at 0.1 µM was 82% and the inhibition at 1 µM worked out at 92%.
The like results for `N#Cc1ccc(N2CCC(C(=O)Nc3ccc(N4CCC(CN5CCN(CC6CCN(c7ccc(C(=O)NC8CCC(=O)NC8=O)nc7)CC6)CC5)CC4)cn3)CC2)cc1C(F)(F)F` (centres unmarked) [Example 106, 5-(4-((4-((1-(6-(1-(4-cyano-3-(trifluoromethyl)phenyl)piperidine-4-carboxamido)pyridin-3-yl)piperidin-4-yl)methyl)piperazin-1-yl)methyl)piperidin-1-yl)-N-(2,6-dioxopiperidin-3-yl)picolinamide] were, in that order, 32%, 86% and 96%.
The like results for `N#Cc1ccc(N2CCC(C(=O)Nc3ccc(N4CCC(CCN5CCN(c6ccc(C(=O)NC7CCC(=O)NC7=O)nc6)CC5)CC4)cn3)CC2)cc1C(F)(F)F` (centres unmarked) [Example 107, 5-(4-(2-(1-(6-(1-(4-cyano-3-(trifluoromethyl)phenyl)piperidine-4-carboxamido)pyridin-3-yl)piperidin-4-yl)ethyl)piperazin-1-yl)-N-(2,6-dioxopiperidin-3-yl)picolinamide] were, in that order, 44%, 85% and 93%.
The like results for `C[C@@H]1CN(CC2CCN(c3ccc(C(=O)NC4CCC(=O)NC4=O)nc3)CC2)CCN1CC1CCN(c2ccc(NC(=O)C3CCN(c4ccc(C#N)c(C(F)(F)F)c4)CC3)nc2)CC1` (stereo partly drawn) [Example 108, 5-(4-(((R)-4-((1-(6-(1-(4-cyano-3-(trifluoromethyl)phenyl)piperidine-4-carboxamido)pyridin-3-yl)piperidin-4-yl)methyl)-3-methylpiperazin-1-yl)methyl)piperidin-1-yl)-N-(2,6-dioxopiperidin-3-yl)picolinamide] were, in that order, 51%, 85% and 89%.
In the case of `C[C@H]1CN(CC2CCN(c3ccc(C(=O)NC4CCC(=O)NC4=O)nc3)CC2)CCN1CC1CCN(c2ccc(NC(=O)C3CCN(c4ccc(C#N)c(C(F)(F)F)c4)CC3)nc2)CC1` (stereo partly drawn) [Example 109, 5-(4-(((S)-4-((1-(6-(1-(4-cyano-3-(trifluoromethyl)phenyl)piperidine-4-carboxamido)pyridin-3-yl)piperidin-4-yl)methyl)-3-methylpiperazin-1-yl)methyl)piperidin-1-yl)-N-(2,6-dioxopiperidin-3-yl)picolinamide], the inhibition at 0.01 µM worked out at 30%, the inhibition at 0.1 µM came out at 82% and the inhibition at 1 µM was determined as 83%.
The like results for `CN(CCN1CCN(c2ccc3c(c2)C(=O)N(C2CCC(=O)NC2=O)C3=O)CC1)CC1CCN(c2ccc(NC(=O)C3CCN(c4ccc(C#N)c(C(F)(F)F)c4)CC3)nc2)CC1` (centres unmarked) [Example 110, 1-(4-cyano-3-(trifluoromethyl)phenyl)-N-(5-(4-(((2-(4-(2-(2,6-dioxopiperidin-3-yl)-1,3-dioxoisoindolin-5-yl)piperazin-1-yl)ethyl)(methyl)amino)methyl)piperidin-1-yl)pyridin-2-yl)piperidine-4-carboxamide] were, in that order, 56%, 89% and 88%.

Source of the values: patent publication US12122763B2, “Substituted piperidines for androgen receptor degradation” (UBIX THERAPEUTICS, INC., priority 2020, dated 2024).
